By EC50 is commonly meant the concentration that produces a half-maximal response. Read a low EC50 as a more potent agent.

Apoptosis regulator Bcl-2, sequence (P10415 whole entry): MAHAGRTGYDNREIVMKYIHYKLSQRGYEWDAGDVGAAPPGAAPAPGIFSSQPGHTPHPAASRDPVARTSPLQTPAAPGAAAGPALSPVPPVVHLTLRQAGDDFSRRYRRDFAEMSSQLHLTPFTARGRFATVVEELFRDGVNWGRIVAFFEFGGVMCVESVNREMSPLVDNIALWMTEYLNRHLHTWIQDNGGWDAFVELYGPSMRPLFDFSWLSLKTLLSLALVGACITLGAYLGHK

One experiment has as its target Apoptosis regulator Bcl-2 (Homo sapiens, UniProt P10415). As to the kind of experiment: Bcl-2 Bim peptide interaction hit potency – biochemical, dose response, multiplexed HTS hits, confirmation (AID 2075).
Conditions: not given
In turn, `Cc1ccc(C=NNC(=O)CSc2nnc(-c3ccc(Cl)cc3)n2-c2ccccc2)o1` [SMR000218122] had an EC50 of 12.3 µM. The same measure, in the same setting: in the case of `O=C1NC(=O)C2(Cc3c(nc4ccccn4c3=O)N3CCCCCC32)C(=O)N1Cc1ccccc1` (configuration not stated) [MLS000083668] it was 2.25 µM; in that of `CC(=O)OCCCNc1cc(Sc2nc3ccccc3s2)c2nonc2c1[N+](=O)[O-]` [MLS000521052], 0.84 µM.

The compound `O=[N+]([O-])c1c(NCCCO)cc(Sc2nc3ccccc3s2)c2nonc12` [MLS000520994] showed a half-maximal effective concentration (EC50) of 1.91 µM. The same measure, in the same setting: in the case of `CN(CCO)c1cc(Sc2nc3ccccc3s2)c2nonc2c1[N+](=O)[O-]` [MLS000520995] it was 6.35 µM. The same measure, in the same setting: the same measure for `Cc1cc2nn(-c3cccc4ccccc34)nc2cc1N` [SMR000076237]: 1.9 µM.

Still in this experiment, the particulars now being: inactive by the depositor's call.
Compound `COc1ccc(CCNC(=O)c2ccc3nc(-c4ccco4)c(-c4ccco4)nc3c2)cc1OC` [N-[2-(3,4-dimethoxyphenyl)ethyl]-2,3-di-2-furylquinoxaline-6-carboxamide] yielded an EC50 of 25.8 µM. As to `Clc1nc(NCc2cccnc2)nc(N2CCOCC2)n1` [MLS000121154], the midpoint of the response, the EC50, lay at 18.9 µM. Turning to `O=C(NCc1ccccc1)c1ccc2nc(-c3ccco3)c(-c3ccco3)nc2c1` [2,3-bis(furan-2-yl)-N-(phenylmethyl)quinoxaline-6-carboxamide], the EC50 is 20.6 µM. Still for that read-out and setting: the same measure for `Cc1ccc(-c2nc3c(c(=O)[nH]c(=O)n3Cc3ccccc3)n2C)o1` [7-methyl-8-(5-methyl-2-furanyl)-3-(phenylmethyl)purine-2,6-dione]: 48.2 µM. The same measure, in the same setting: in the case of `CCN(CC)C(=O)COC(=O)c1cc(-c2ccco2)nc2ccccc12` [SMR000377201] it was 29.5 µM; in that of `COc1ccccc1NC1=C(NC(C)=O)C(=O)c2ccccc2C1=O` [N-[3-(2-methoxyanilino)-1,4-dioxonaphthalen-2-yl]acetamide], 12.1 µM.

For the origin of these results see BindingDB's records for doi:10.7270/Q2S46QC1 (Nmmlsc, 2009).
